The record followed here is patent US9635855B2, “Polyelectrolyte complexes for biocide enhancement” (priority 2012, dated 2017).

The experiment relates to Botrytis cinerea. The experiment can be described thus: Botrytis cinerea fruit rot on wounded apple, post-harvest spray (Example 2). Format: in vivo.

Each structure is given as a SMILES string.

Regarding `C[C@@H]1C/C=C/C=C/C=C/C=C/[C@H](O[C@@H]2O[C@H](C)[C@@H](O)[C@H](N)[C@@H]2O)C[C@@H]2O[C@](O)(C[C@@H](O)C[C@H]3O[C@@H]3/C=C/C(=O)O1)C[C@H](O)[C@H]2C(=O)O` [natamycin], the “Rot on apples, comparison in words” value (five and six days after inoculation) is recorded as “clearly lower”. For the same compound, the “Botrytis fruit rot symptoms (in words)” value (two days after inoculation) was “did not show any symptoms”.
